Experimental data as given in paper PMC12764431 (Nature immunology, 2025).

How the values were obtained:
[1] = system: dendritic cells (DCs) pulsed with InsB9–23; assay: MHC-II; assay type: cell-based, NOD mice; conditions: InsB9–23-pulsed DCs, TNFα or TNFα plus NAC; three independent peptidomes
[2] = system: MIN6 cells and B6 mouse islets; assay: Granule-based antigen presentation; assay type: cell-based; conditions: MIN6 cells stimulated with TNFα; for S5 T cell responses to crinosome fractions from TNFα-treated MIN6 cells: with or without glutathione or TUDCA, n = 6
[3] = system: InsB9–23(C19S)-specific T cell hybridomas; assay: Responses of InsB9–23; assay type: cell-based, NOD mice; conditions: C3.g7 cells pulsed with peptides, 0.3 μM; n = 6 hybridomas
MHC-II = conditions: cited from earlier work
soluble I-A^g7 molecules = assay: Biochemical competitive binding assay; set-up: species or system mouse; conditions: soluble I-A^g7, Extended Data Fig. 3c,d, n = 2
[4] = system: S5 CD4^+ T cell hybridoma; assay: Response of the S5 CD4+ T cell hybridoma to synthetic peptides; assay type: cell-based, NOD mice; conditions: serially diluted peptide, IL-2 production
[5] = system: 9B9 CD4^+ T cell hybridoma; assay: Response of the 9B9 CD4+ T cell hybridoma to synthetic peptides; assay type: cell-based, NOD mice; conditions: serially diluted peptide, IL-2 production
[6] = system: islet and pancreatic lymph node cells; assay: IFNγ ELISPOT, antigen recall of pooled islet and pancreatic lymph node cells; assay type: cell-based; conditions: cells pooled from islets and pancreatic lymph nodes of 8-week-old female NOD mice, peptide 1 μM; n = 4
[7] = system: MIN6 cells and B6 mouse islets; assay: β cell death and total granule protein after tunicamycin; assay type: cell-based; conditions: tunicamycin 2 h, followed by extensive washing

Compound: CC(=O)N[C@@H](CS)C(=O)O [NAC, N-acetylcysteine]
- InsB9–23(C19S) peptide in the DC I-A^g7 peptidome [1]: reduced

Compound: C[C@H](CCC(=O)NCCS(=O)(=O)O)[C@H]1CC[C@H]2[C@@H]3[C@@H](O)C[C@@H]4C[C@H](O)CC[C@]4(C)[C@H]3CC[C@]12C [TUDCA, tauroursodeoxycholic acid]
- S5 T cell responses to crinosome fractions from TNFα-treated MIN6 cells [2]: inhibited

Compound: N[C@@H](CCC(=O)N[C@@H](CS)C(=O)NCC(=O)O)C(=O)O [glutathione]
- S5 T cell responses to crinosome fractions from TNFα-treated MIN6 cells [2]: inhibited

Compound: EALYLVSGE [Nested InsB13-21(C19S)]
- Recognition of register peptides by InsB9–23(C19S)-specific T cell hybridomas [3]: only a few recognizing

Compound: GDLQTLALEVARE [CP1d]
- MHC-II binding relative to the native C-peptide (MHC-II): ~ 45 fold

Compound: InsB12–20(C19A): surrogate InsB12–20 peptide with C19A
- Binding to I-A^g7 compared to native counterparts (soluble I-A^g7 molecules): similarly reduced binding

Compound: SHLVEALALVCGERG [InsB9–23(Y16A)]
- Response of the S5 T cell hybridoma to peptide [4]: failed to respond at any peptide concentration
- Response of the 9B9 T cell hybridoma to peptide [5]: did not respond

Compound: SHLVEALYLVCGERG [InsB9–23]
- IFNγ production by ELISPOT during antigen recall [6]: induced IFNγ production

Compound: SHLVEALYLVSGERG [InsB9–23(C19S)]
- Response of the S5 T cell hybridoma to peptide [4]: responded robustly
- Response of the 9B9 T cell hybridoma to peptide [5]: minimal reactivity
- IFNγ production by ELISPOT during antigen recall [6]: triggered even higher responses

Compound: TNFα
- Native InsB9–23 levels (9B9 T cell responses), TNFα-treated MIN6 cells [2]: did not affect
- S5 T cell responses to crinosome fractions from TNFα-treated MIN6 cells [2]: significant increase
- InsB9–23(C19S) peptide in the DC I-A^g7 peptidome [1]: appeared

Compound: tunicamycin
- β cell death [7]: did not cause β cell death
